In US12187723B2 (BRISTOL-MYERS SQUIBB COMPANY, priority 2019, dated 2025):

What was measured:
[1] = target: T1, human TLR9 (Homo sapiens, UniProt Q9NR96); test: TLR9 inhibition reporter assay (HEK-Blue SEAP); format: cell-based; conditions: HEK-Blue cells overexpressing human TLR9, ODN2006 5 nM, 22 hour incubation
T1 construct: host or cells: HEK-Blue cells
T1 sequence (Q9NR96 26-1032): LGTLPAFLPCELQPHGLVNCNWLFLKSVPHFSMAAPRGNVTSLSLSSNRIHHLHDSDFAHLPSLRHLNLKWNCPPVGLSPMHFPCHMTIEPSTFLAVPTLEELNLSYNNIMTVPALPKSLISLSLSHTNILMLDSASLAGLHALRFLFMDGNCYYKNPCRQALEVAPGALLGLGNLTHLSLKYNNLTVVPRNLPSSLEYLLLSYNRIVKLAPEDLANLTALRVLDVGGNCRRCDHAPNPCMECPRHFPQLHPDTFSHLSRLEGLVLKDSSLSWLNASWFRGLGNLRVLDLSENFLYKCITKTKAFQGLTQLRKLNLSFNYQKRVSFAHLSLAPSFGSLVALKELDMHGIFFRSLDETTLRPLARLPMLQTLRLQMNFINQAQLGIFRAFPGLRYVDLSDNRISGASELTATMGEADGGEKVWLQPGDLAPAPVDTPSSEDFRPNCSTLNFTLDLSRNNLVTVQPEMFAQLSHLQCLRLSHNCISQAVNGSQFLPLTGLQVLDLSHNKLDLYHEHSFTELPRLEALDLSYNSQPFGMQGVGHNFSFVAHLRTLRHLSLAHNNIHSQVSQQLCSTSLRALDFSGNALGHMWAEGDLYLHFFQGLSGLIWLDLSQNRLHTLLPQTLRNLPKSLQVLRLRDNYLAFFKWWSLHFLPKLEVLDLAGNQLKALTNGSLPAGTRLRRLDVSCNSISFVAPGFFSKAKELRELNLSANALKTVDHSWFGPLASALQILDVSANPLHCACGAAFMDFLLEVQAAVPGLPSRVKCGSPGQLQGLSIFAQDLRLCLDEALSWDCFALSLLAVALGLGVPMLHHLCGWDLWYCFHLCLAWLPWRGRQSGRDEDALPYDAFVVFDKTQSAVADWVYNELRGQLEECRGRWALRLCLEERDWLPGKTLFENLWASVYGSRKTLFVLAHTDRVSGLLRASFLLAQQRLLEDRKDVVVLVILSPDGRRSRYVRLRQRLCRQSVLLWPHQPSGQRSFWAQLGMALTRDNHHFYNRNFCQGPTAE
In short: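 Dose–response from 0.05 nM to 50 μM was run in HEK-Blue human TLR7, TLR8 and TLR9 reporter cells. After 30 min at room temperature with compound, ligand was added (TLR7 gardiquimod 7.5 μM; TLR8 R848 15.9 μM; TLR9 ODN2006 5 nM) and SEAP measured next day, at 22 h.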

[2] = target: T2, human TLR7 (Homo sapiens, UniProt Q9NYK1); test: TLR7 inhibition reporter assay (HEK-Blue SEAP); format: cell-based; conditions: HEK-Blue cells overexpressing human TLR7, gardiquimod 7.5 μM, 22 hour incubation
T2 construct: host or cells: HEK-Blue cells
T2 sequence (Q9NYK1 27-1049): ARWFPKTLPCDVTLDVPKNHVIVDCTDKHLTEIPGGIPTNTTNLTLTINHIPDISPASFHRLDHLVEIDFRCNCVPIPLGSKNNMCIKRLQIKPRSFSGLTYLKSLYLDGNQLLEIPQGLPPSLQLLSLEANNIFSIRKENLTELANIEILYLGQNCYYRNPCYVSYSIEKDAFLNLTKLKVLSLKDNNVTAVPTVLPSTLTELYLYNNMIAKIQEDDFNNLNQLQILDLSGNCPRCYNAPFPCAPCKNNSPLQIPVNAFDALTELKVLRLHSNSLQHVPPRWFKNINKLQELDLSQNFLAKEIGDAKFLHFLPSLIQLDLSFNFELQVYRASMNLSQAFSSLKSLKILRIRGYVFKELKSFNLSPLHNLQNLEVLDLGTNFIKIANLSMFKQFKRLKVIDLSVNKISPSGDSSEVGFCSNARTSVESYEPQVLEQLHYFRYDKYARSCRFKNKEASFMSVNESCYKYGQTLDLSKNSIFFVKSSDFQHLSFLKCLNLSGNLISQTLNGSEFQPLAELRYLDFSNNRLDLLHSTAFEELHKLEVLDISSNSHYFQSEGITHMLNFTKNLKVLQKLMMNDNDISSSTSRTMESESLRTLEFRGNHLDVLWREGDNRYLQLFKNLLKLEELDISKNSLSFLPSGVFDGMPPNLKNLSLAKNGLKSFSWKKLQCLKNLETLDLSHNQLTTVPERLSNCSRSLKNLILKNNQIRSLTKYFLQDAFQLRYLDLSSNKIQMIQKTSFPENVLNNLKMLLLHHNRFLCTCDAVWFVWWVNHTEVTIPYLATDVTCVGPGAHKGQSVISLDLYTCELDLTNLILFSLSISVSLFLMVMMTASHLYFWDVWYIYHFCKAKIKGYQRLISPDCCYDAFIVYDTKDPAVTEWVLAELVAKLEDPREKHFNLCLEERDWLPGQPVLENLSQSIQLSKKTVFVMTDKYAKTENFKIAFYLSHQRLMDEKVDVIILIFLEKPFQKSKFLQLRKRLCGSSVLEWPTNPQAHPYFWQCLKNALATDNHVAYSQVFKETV
In short: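 In this cell reporter format, test compounds at 0.05 nM-50 μM final incubate 22 h with seeded cells (TLR7 15000, TLR8 20,000 per well). SEAP read-out by HEK-Blue Detection medium yields % inhibition relative to agonist/DMSO and known-inhibitor wells.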

IC50 [1]: 12.6 µM | IC50 [2]: 0.565 µM
Compound: Cc1cc2c(cc1-c1cc(C)c3ncnn3c1)[nH]c(=O)n2[C@H]1CCCN(CC(=O)N(C)C)C1 [Example 93, (S)—N,N-dimethyl-2-(3-(6-methyl-5-(8-methyl-[1,2,4]triazolo[1,5-a]pyridin-6-yl)-2-oxo-2,3-dihydro-1H-benzo[d]imidazol-1-yl)piperidin-1-yl)acetamide]
